Measurements as given in publication PMC9530963, “A cathelicidin antimicrobial peptide from Hydrophis cyanocinctus inhibits Zika virus infection by downregulating expression of a viral entry factor” (The Journal of Biological Chemistry, 2022).

Key:
ZIKV = assay: Susceptibility of Vero cells to ZIKV (peptide pretreatment of cells); format: cell-based, ZIKV strain PRVABC59; settings: 2.5 μM, Vero cells incubated 2 h with peptide before ZIKV (MOI = 1), 48 h
Method: Figure 2 Hc-CATH decreases the susceptibility of Vero cells to ZIKV.A, schematic diagram of B–G (Hc-CATH-Vero-pre). B–G, pretreatment with Hc-CATH before ZIKV infection decreases the susceptibility of Vero cells to ZIKV. Vero cells were seeded in 24-well plates (5 × 10^4 cells/well) and cultured in DMEM containing 2% FBS. Hc-CATH (2.5 μM), AC5 (2.5 μM), LL-37 (2.5 μM), or same volume of PBS (peptide solvent) was added to cells and incubated at 37 °C for 2 h. Vero cells were washed three times with PBS, and ZIKV (MOI = 1) was added to cells. After incubation at 37 °C for 2 h, Vero cells were washed with PBS and transferred with fresh DMEM containing 2% FBS. After culture for 48 h, intracellular ZIKV RNA (B), NS3 protein (C and D, C: immunoblots, D: ratio analyzed by ImageJ), E protein (E, the scale bar represents 50 μm), and extracellular ZIKV titer (F and G) was tested by qPCR, Western blot, immunofluorescence staining, and plaque-forming assay, respectively.
Vero, A549, or U251 cells were incubated with peptide or PBS at 37 °C for 2 h. The cells were washed three times with PBS and incubated with ZIKV (MOI = 1) at 37 °C for 2 h. The culture media were replaced with fresh DMEM containing 2% FBS. After incubation at 37 °C for 48 h, intracellular ZIKV RNA, NS3 protein, E protein, and extracellular ZIKV titer were detected by qPCR, WB, IF, and plaque-forming assay, respectively ([28]).

[1] = set-up: method as in PMID 26013823; settings: cited from earlier work

## KFFKRLLKSVRRAVKKFRKKPRLIGLSTLL [Hc-CATH, cathelicidin antimicrobial peptide identified from the sea snake Hydrophis cyanocinctus]
ZIKV; Western blot
  reduction of ZIKV NS3 protein, cells pre-incubated with peptide: ~50.1%
ZIKV; plaque-forming assay
  reduction of ZIKV particles, cells pre-incubated with peptide: ~62.2%
ZIKV; qPCR
  reduction of ZIKV RNA, cells pre-incubated with peptide: about 46.1%
[1]
  anti-inflammatory activity: potent anti-inflammatory activity
